Measured values from patent US20250059206A1, “FUSED RING COMPOUND ACTING AS SHP2 INHIBITOR” (priority 2021, published 2025).

System: MIA PaCa-2 cells
Test: In vitro anti-proliferative activity against MIA PaCa-2 cells
Format: cell-based
Settings: Homo sapiens, viability 72 h after dosing by intracellular ATP content, versus DMSO group
Experimental: Example 50. In Vtro Anti-Proliferative Activity of Compounds of the Present Invention Against MIA PaCa-2 Cells
MIA PaCa-2 cells were seeded on a 96-well plate at 3000 cells/well. After overnight adherence culture, DMSO or the compounds serially diluted 1:5 from […] were added. The viability was assessed 72 h after dosing by measuring the intracellular ATP content. The inhibition percentages of viable cells by the compounds were calculated by comparing with the DMSO group, and the IC50 values were calculated.

Row | Structure (SMILES) | IC50
1 | N[C@@H]1c2ccccc2CC12CCN(c1cnc3c(N4CCN5CCCc6cccc4c65)n[nH]c3n1)CC2 [Compound 1] | 35.1 nM
2 | Cc1ccc2c(c1)[C@@H](N)C1(CCN(c3cnc4c(N5CCN6C(=O)CCc7c(F)ccc5c76)n[nH]c4n3)CC1)C2 [Compound 46] | 14 nM
3 | N[C@@H]1c2cc(O)ccc2CC12CCN(c1cnc3c(N4CCN5C(=O)CCc6ccc(F)c4c65)n[nH]c3n1)CC2 [Compound 35] | 17.3 nM
4 | COc1cccc2c1CC1(CCN(c3cnc4c(N5CCN6C(=O)CCc7cccc5c76)n[nH]c4n3)CC1)[C@@H]2N [Compound 24] | 9.6 nM
5 | COc1cccc2c1CC1(CCN(c3cnc4c(N5CCN6C(=O)CCc7c(F)ccc5c76)n[nH]c4n3)CC1)[C@@H]2N [Compound 48] | 19.2 nM
6 | N[C@@H]1c2cccnc2CC12CCN(c1cnc3c(N4CCn5c(=O)ccc6cccc4c65)n[nH]c3n1)CC2 [Compound 14] | 7.2 nM
7 | N[C@@H]1c2cc(F)ccc2CC12CCN(c1cnc3c(N4CCN5C(=O)CCc6ccc(F)c4c65)n[nH]c3n1)CC2 [Compound 37] | 13.9 nM
8 | N[C@@H]1c2cc(O)ccc2CC12CCN(c1cnc3c(N4CCN5C(=O)CCc6cccc4c65)n[nH]c3n1)CC2 [Compound 21] | 11.3 nM
9 | N[C@@H]1c2cc(O)ccc2CC12CCN(c1cnc3c(N4CCN5C(=O)CCc6cc(F)cc4c65)n[nH]c3n1)CC2 [Compound 40] | 18.1 nM
10 | N[C@@H]1c2cc(F)ccc2CC12CCN(c1cnc3c(N4CCN5C(=O)CCc6c(F)ccc4c65)n[nH]c3n1)CC2 [Compound 47] | 9.5 nM
11 | N[C@@H]1c2cccnc2CC12CCN(c1cnc3c(N4CCN5C(=O)CCc6cc(F)cc4c65)n[nH]c3n1)CC2 [Compound 16] | 9.3 nM
12 | N[C@@H]1c2ccccc2CC12CCN(c1cnc3c(N4CCn5c(=O)ccc6cccc4c65)n[nH]c3n1)CC2 [Compound 6] | 6.5 nM
13 | Cc1ccc2c(c1)[C@@H](N)C1(CCN(c3cnc4c(N5CCN6C(=O)CCc7cc(F)cc5c76)n[nH]c4n3)CC1)C2 [Compound 41] | 13.5 nM
14 | N[C@@H]1c2ccccc2CC12CCN(c1cnc3c(N4CCN5C(=O)CCc6cc(F)cc4c65)n[nH]c3n1)CC2 [Compound 9] | 8.9 nM
15 | N[C@@H]1c2ccccc2CC12CCN(c1cnc3c(N4CCN5C(=O)CCc6cccc4c65)n[nH]c3n1)CC2 [Compound 3] | 5.1 nM
16 | N[C@@H]1c2ccc(F)nc2CC12CCN(c1cnc3c(N4CCN5C(=O)CCc6cccc4c65)n[nH]c3n1)CC2 [Compound 26] | 8.1 nM
17 | COc1cccc2c1CC1(CCN(c3cnc4c(N5CCN6C(=O)CCc7ccc(F)c5c76)n[nH]c4n3)CC1)[C@@H]2N [Compound 38] | 15.6 nM
18 | N[C@@H]1c2ccccc2CC12CCN(c1cnc3c(N4CCN5C(=O)CCc6c(F)ccc4c65)n[nH]c3n1)CC2 [Compound 10] | 12.1 nM
19 | NC1c2cccnc2CC12CCN(c1cnc3c(N4CCN5C(=O)CCc6c(F)ccc4c65)n[nH]c3n1)CC2 (stereo not drawn) [Compound 17] | 10.8 nM
20 | N[C@@H]1c2cc(O)ccc2CC12CCN(c1cnc3c(N4CCN5C(=O)CCc6c(F)ccc4c65)n[nH]c3n1)CC2 [Compound 45] | 11.5 nM
21 | N[C@@H]1c2ccc(Cl)nc2CC12CCN(c1cnc3c(N4CCN5C(=O)CCc6cccc4c65)n[nH]c3n1)CC2 [Compound 27] | 15.9 nM
22 | N[C@@H]1c2cccnc2CC12CCN(c1cnc3c(N4CCN5C(=O)CCc6cccc4c65)n[nH]c3n1)CC2 [Compound 12] | 5.8 nM
23 | Cc1ccc2c(c1)[C@@H](N)C1(CCN(c3cnc4c(N5CCN6C(=O)CCc7ccc(F)c5c76)n[nH]c4n3)CC1)C2 [Compound 36] | 12.5 nM
24 | N[C@@H]1c2cc(F)ccc2CC12CCN(c1cnc3c(N4CCN5C(=O)CCc6cc(F)cc4c65)n[nH]c3n1)CC2 [Compound 42] | 10.1 nM
